# Several values for one entry are separate records, joined by “and”; a condition that tells them apart may be missing. Identical values can stand only once.
# How the values were obtained:
# Assay type in all cases: in vivo
# [1] = system: SETFA, Setaria faberi (giant foxtail); assay: Greenhouse postemergence herbicidal effect, visual injury 20-22 d after application
# From the text: (§1) Seeds of the desired test plant species were planted in a 90:10% v/v (volume/volume) mixture of PRO-MIX® BX (Premier Tech Horticulture, Quakertown, PA, USA) and PROFILE® GREENS GRADE™ (Profile Products LLC, Buffalo Grove, IL, USA) planting mixture, which typically has a pH of 5.2 to 6.2 and an organic matter content of at least 50 percent, in plastic pots with a surface area of 103.2 square centimeters (cm^2). In some aspects, to help ensure good germination and healthy plants, a fungicide treatment and/or other chemical or physical treatment was applied. The plants were grown for 7-36 days (d) in a greenhouse with an approximate 14-hour (h) photoperiod which was maintained at about 23° C. during the day and 22° C. during the night. Nutrients and water were added on a regular basis and supplemental lighting was provided with overhead metal halide 1000-Watt lamps as necessary. The plants were employed for testing when they reached the second or third true leaf stage.
# (§2) Emulsifiable concentrates of each of each pyridine carboxylate herbicide (Compound A or Compound B) were prepared at 100 grams acid equivalent per liter (g ae/L). The emulsifiable concentrates also included a safener, cloquintocet mexyl, at 120 grams active ingredient per liter (g ai/L). An aliquot of each emulsifiable concentrate was placed in a 25 mL glass vial and diluted with an aqueous mixture of 1.25% (v/v) ACTIROB® B esterified rapeseed oil (Bayer Crop Science, Research Triangle Park, NC, USA) or MSO® Concentrate with LECI-TECH® methylated soybean oil (Loveland Products, Loveland, CO, USA) to obtain concentrated stock solutions at the highest application rate for each herbicide, based upon a 12 milliliter (mL) application volume at a rate of 187 liters per hectare (L/ha). The concentrated stock solutions were further diluted with an aqueous mixture of 1.25% v/v ACTIROB® B or MSO® Concentrate with LECI-TECH® to obtain stock solutions at reduced application rates for each herbicide. Spray solutions of the herbicide combinations (Compound A or Compound B plus HPPD inhibitor herbicide) were prepared by adding weighed amounts or aliquots of the HPPD inhibitor herbicides to the stock solutions of Compound A or Compound B to form 12-mL spray solutions in two-way combinations.
# (§3) The spray solutions were applied to the plant material with an overhead Mandel track sprayer equipped with 8002E nozzles calibrated to deliver 187 L/ha over an application area of 0.503 square meters (m^2) at a spray height of 18 inches (43 centimeters (cm)) above the average plant canopy. Control plants were sprayed in the same manner with the solvent blank. All pyridine carboxylate herbicide (component a) application rates are given as “g ae/ha” and all HPPD inhibitor herbicide (component b) application rates are given as “g ai/ha.”
# (§4) The treated plants and control plants were placed in a greenhouse as described above and watered by sub-irrigation to prevent wash-off of the test compounds. After 20-22 d, the condition of the test plants as compared with that of the control plants was determined visually and scored on a scale of 0 to 100 percent where 0 corresponds to no injury and 100 corresponds to complete kill.
# [2] = system: DIGSA, Digitaria sanguinalis (large crabgrass); assay: as above
# From the text: as §1, §2, §3, §4
# [3] = system: BRSNN, Brassica napus (spring rape); assay: as above
# From the text: as §1, §2, §3, §4
# [4] = system: ECHCG, Echinochloa crus-galli (barnyard grass); assay: as above
# From the text: as §1, §2, §3, §4
# [5] = system: LOLMU, Lolium multiflorum (Italian ryegrass); assay: as above
# From the text: as §1, §2, §3, §4
# [6] = system: STEME, Stellaria media (chickweed); assay: as above
# From the text: as §1, §2, §3, §4
# [7] = system: KCHSC, Kochia scoparia (kochia); assay: as above; details: Bassia scoparia, post-emergence, KCHSC, read-out: % visual injury Obs
# From the text: as §1, §2, §3, §4
# [8] = system: BRSNW, Brassica napus (winter rape); assay: as above
# From the text: as §1, §2, §3, §4
# [9] = system: AMARE, Amaranthus retroflexus (pigweed); assay: as above
# From the text: as §1, §2, §3, §4
# [10] = system: HELAN, Helianthus annuus (common sunflower); assay: as above
# From the text: as §1, §2, §3, §4
# [11] = system: SINAR, Sinapis arvensis (wild mustard); assay: as above
# From the text: as §1, §2, §3, §4
# [12] = system: MATCH, Matricaria chamomilla (wild chamomile); assay: as above
# From the text: as §1, §2, §3, §4
# [13] = system: EPHHL, Euphorbia heterophylla (poinsettia); assay: as above
# From the text: as §1, §2, §3, §4
# [14] = system: CHEAL, Chenopodium album L. (common lambsquarters); assay: as above
# From the text: as §1, §2, §3, §4
# [15] = system: IPOHE, Ipomoea hederacea (ivyleaf morningglory); assay: as above
# From the text: as §1, §2, §3, §4
# [16] = system: SASKR, Salsola kali (Russian thistle); assay: as above
# From the text: as §1, §2, §3, §4
# [17] = system: ABUTH, Abutilon theophrasti (velvetleaf); assay: as above
# From the text: as §1, §2, §3, §4
# [18] = system: VIOTR, Viola tricolor (wild pansy); assay: as above
# From the text: as §1, §2, §3, §4
# [19] = system: POLCO, Polygonum convolvulus (wild buckwheat); assay: as above
# From the text: as §1, §2, §3, §4
# [20] = system: TRZAS, Triticum aestivum (spring wheat); assay: Greenhouse postemergence phytotoxicity on crop, visual injury 20-22 d after application
# From the text: as §1, §2, §3, §4
# [21] = system: HORVS, Hordeum vulgare (spring barley); assay: as above
# From the text: as §1, §2, §3, §4
# [22] = system: CIRAR, Cirsium arvense (Canadian thistle); assay: Greenhouse postemergence herbicidal effect, visual injury 20-22 d after application
# From the text: as §1, §2, §3, §4
compound,measurement,setting,value
"CS(=O)(=O)c1ccc(C(=O)C2=C(Sc3ccccc3)C3CCC(C3)C2=O)c(Cl)c1 (stereo not shown) [Benzobicyclon, 3-[2-chloro-4-(methylsulfonyl)benzoyl]-4-(phenylthio)bicyclo[3.2.1]oct-3-en-2-one]",% visual injury Obs,[1]; Benzobicyclon 50 g ai/ha,0%
same,% visual injury Obs,[2]; Benzobicyclon 50 g ai/ha,10%
same,% visual injury Obs,[3]; Benzobicyclon 50 g ai/ha,8%
same,% visual injury Obs,[4]; Benzobicyclon 50 g ai/ha,0%
same,% visual injury Obs,[5]; Benzobicyclon 50 g ai/ha,0%
same,% visual injury Obs,[6]; Benzobicyclon 50 g ai/ha,28%
same,pest or weed control at 50 g/ha,[7]; Benzobicyclon 50 g ai/ha,0%
"N#CCOC(=O)c1nc(-c2ccc3cc[nH]c3c2F)c(F)c(N)c1Cl [Compound A, cyanomethyl 4-amino-3-chloro-5-fluoro-6-(7-fluoro-1H-indol-6-yl)pyridine-2-carboxylate]",% visual injury Obs,[8]; Compound A 7.5 g ae/ha,35% and 63%
same,% visual injury Obs,[8]; Compound A 10 g ae/ha,40% and 68%
same,% visual injury Obs,[1]; Compound A 7.5 g ae/ha,60%
same,% visual injury Obs,[1]; Compound A 10 g ae/ha,78%
same,% visual injury Obs,[9]; Compound A 7.5 g ae/ha,80% and 90% and 70%
same,% visual injury Obs,[9]; Compound A 10 g ae/ha,85% and 90%
same,% visual injury Obs,[2]; Compound A 7.5 g ae/ha,13%
same,% visual injury Obs,[2]; Compound A 10 g ae/ha,25%
same,% visual injury Obs,[3]; Compound A 10 g ae/ha,45% and 60%
same,% visual injury Obs,[10]; Compound A 7.5 g ae/ha,83%
same,% visual injury Obs,[10]; Compound A 10 g ae/ha,88%
same,% visual injury Obs,[11]; Compound A 7.5 g ae/ha,83% and 85%
same,% visual injury Obs,[11]; Compound A 10 g ae/ha,88%
same,% visual injury Obs,[4]; Compound A 7.5 g ae/ha,80%
same,% visual injury Obs,[4]; Compound A 10 g ae/ha,88%
same,% visual injury Obs,[12]; Compound A 7.5 g ae/ha,10% and 18%
same,% visual injury Obs,[12]; Compound A 10 g ae/ha,20% and 30%
same,% visual injury Obs,[13]; Compound A 7.5 g ae/ha,91%
same,% visual injury Obs,[13]; Compound A 10 g ae/ha,83%
same,% visual injury Obs,[14]; Compound A 7.5 g ae/ha,75% and 70%
same,% visual injury Obs,[14]; Compound A 10 g ae/ha,80% and 78%
same,% visual injury Obs,[15]; Compound A 7.5 g ae/ha,5%
same,% visual injury Obs,[15]; Compound A 10 g ae/ha,0%
same,% visual injury Obs,[16]; Compound A 7.5 g ae/ha,60%
same,% visual injury Obs,[16]; Compound A 10 g ae/ha,63%
same,% visual injury Obs,[17]; Compound A 7.5 g ae/ha,40%
same,% visual injury Obs,[17]; Compound A 10 g ae/ha,48%
same,% visual injury Obs,[18]; Compound A 7.5 g ae/ha,3%
same,% visual injury Obs,[18]; Compound A 10 g ae/ha,3%
same,% visual injury Obs,[5]; Compound A 7.5 g ae/ha,8%
same,% visual injury Obs,[5]; Compound A 10 g ae/ha,3%
same,% visual injury Obs,[6]; Compound A 7.5 g ae/ha,90%
same,% visual injury Obs,[6]; Compound A 10 g ae/ha,85%
same,% visual injury Obs,[19]; Compound A 10 g ae/ha,70% and 43%
same,pest or weed control at 7.5 g/ha,[7]; Compound A 7.5 g ae/ha,63%
same,pest or weed control at 10 g/ha,[7]; Compound A 10 g ae/ha,70%
same,% visual injury Obs,[20]; Compound A 7.5 g ae/ha,0%
same,% visual injury Obs,[20]; Compound A 10 g ae/ha,0%
same,% visual injury Obs,[21]; Compound A 7.5 g ae/ha,8% and 0%
same,% visual injury Obs,[21]; Compound A 10 g ae/ha,0%
"C#CCOC(=O)c1nc(-c2ccc3cc[nH]c3c2F)c(F)c(N)c1Cl [Compound B, propargyl 4-amino-3-chloro-5-fluoro-6-(7-fluoro-1H-indol-6-yl)pyridine-2-carboxylate]",% visual injury Obs,[22]; Compound B 7.5 g ae/ha,45%
same,% visual injury Obs,[22]; Compound B 10 g ae/ha,45%
same,% visual injury Obs,[17]; Compound B 7.5 g ae/ha,68%
same,% visual injury Obs,[17]; Compound B 10 g ae/ha,68%
same,% visual injury Obs,[18]; Compound B 7.5 g ae/ha,10%
same,% visual injury Obs,[18]; Compound B 10 g ae/ha,40%
"CS(=O)(=O)c1cc(C(F)(F)F)ccc1C(=O)c1cnoc1C1CC1 [Isoxaflutole, (5-cyclopropyl-4-isoxazolyl)[2-(methylsulfonyl)-4-(trifluoromethyl)phenyl]methanone]",% visual injury Obs,[9]; Isoxaflutole 60 g ai/ha,53%
same,% visual injury Obs,[10]; Isoxaflutole 60 g ai/ha,85%
same,% visual injury Obs,[22]; Isoxaflutole 60 g ai/ha,70%
same,% visual injury Obs,[15]; Isoxaflutole 60 g ai/ha,38%
same,% visual injury Obs,[17]; Isoxaflutole 60 g ai/ha,58%
same,% visual injury Obs,[18]; Isoxaflutole 60 g ai/ha,25%
same,% visual injury Obs,[19]; Isoxaflutole 60 g ai/ha,0%
same,pest or weed control at 60 g/ha,[7]; Isoxaflutole 60 g ai/ha,38%

# Source: US12453349B2, “Compositions comprising pyridine carboxylate herbicides and 4-hydroxyphenyl-pyruvate dioxygenase (HPPD) inhibitor herbicides” (Corteva Agriscience LLC, priority 2018, dated 2025)
